Experimental data reported in publication PMC10056008 (Pharmaceuticals, 2023).
Like-named read-outs stand apart in the source and are kept apart here. Values belong to the compound of their own block, whether it stands above or below them.

What was measured:
[1] = Pharmacokinetics of dabigatran etexilate, dabigatran and dabigatran acylglucuronide in plasma after 150 mg dabigatran etexilate with or without simvastatin; assay type: in vivo, human
Protocol: An open-label, two-period, single sequence clinical study was conducted. After an overnight fast and drinking 200 mL of water one hour before drug administration, eligible subjects were administered with a capsule of dabigatran etexilate 150 mg ([…]®) on the first day of the study. Blood samples for pharmacokinetic and pharmacodynamic analyses were obtained using EDTA tubes and citrate tubes, respectively. […] Subjects remained at fasting stage until 4 h after the administration. […] To ensure compliance, subjects visited the study site for every drug administration. […] Blood samples were obtained at the same time point scheduled as the first day of the study. Adverse events were collected during the entire study period. This study was conducted in accordance with the Declaration of Helsinki, good clinical practice, and local regulation. The study was approved by the Institutional Review Board at Korea University Guro Hospital (2018GR0336, date of approval: 11 October 2018) and registered at ClinicalTrials.gov (NCT03728101). Separate plasma samples were kept frozen below -70 °C until analysis. Plasma concentrations of dabigatran etexilate, dabigatran, and dabigatran acylglucuronide were quantified using a high-performance liquid chromatography (Nanospace series SI-2, Shiseido Co., Ltd., Tokyo, Japan) coupled with tandem mass spectrometry (API4000, AB SCIEX LLC, Framingham, MA, USA) method. The method was validated in terms of selectivity, linearity, precision, accuracy, recovery, matrix effect, and stability prior to the analysis. In brief, 100 μL of plasma samples were deproteinized using 400 μL of acetonitrile and centrifuged at 13,000× g for 20 min. Dabigatran-d3 was used as an internal standard. The supernatants were evaporated and then dissolved in a 300 μL mobile phase consisting of acetonitrile and 10 mM ammonium formate (215:85, v/v). These samples were injected onto an Atlantis HILIC SilicaTM column (2.1 mm × 150 mm, 3 μm, Waters, Milford, MA, USA) at a flow rate of 0.3 mL/min. The mass spectrometer equipped with an electrospray ionization source was operated in a positive ion mode. Selected ion pairs of m/z 629.464→290.100 for dabigatran etexilate, m/z 472.300→289.100 for dabigatran, m/z 648.382→289.100 for dabigatran acylglucuronide were detected. […] Pharmacokinetic parameters of dabigatran etexilate, dabigatran, and dabigatran acylglucuronide were derived from noncompartmental analysis using Phoenix Winnonlin® version 8.3 (Certara, Princeton, NJ, USA). Observed values from individual time-concentration profiles were used for Cmax and Tmax. Area under the time-concentration curve (AUC) was calculated using linear-up log-down trapezoidal rule. The AUC from 0 h to infinity (AUCinf) was calculated as follows: AUCinf = AUC + Ct/ke, where Ct was the last plasma concentration and ke was the elimination rate constant. […] Mean residence time (MRT) was calculated as area under the moment curve from time of dosing to the last measurable concentration divided by AUClast. All statistical analyses were performed using SAS® version 9.4 (SAS Institute Inc., Cary, NC, USA). Descriptive statistics were used to summarize demographic, pharmacokinetic, and pharmacodynamic data. A linear mixed effects model was used to compare Cmax, AUClast, and AUCinf between two treatment periods.

coagulation = assay: Coagulation assay (aPTT, PT, dPT, TT, fibrinogen) in plasma of dosed subjects; assay type: in vivo, human; conditions: after administration of dabigatran etexilate
Protocol: An open-label, two-period, single sequence clinical study was conducted. After an overnight fast and drinking 200 mL of water one hour before drug administration, eligible subjects were administered with a capsule of dabigatran etexilate 150 mg ([…]®) on the first day of the study. Blood samples for pharmacokinetic and pharmacodynamic analyses were obtained using EDTA tubes and citrate tubes, respectively. […] Subjects remained at fasting stage until 4 h after the administration. […] To ensure compliance, subjects visited the study site for every drug administration. […] Blood samples were obtained at the same time point scheduled as the first day of the study. Adverse events were collected during the entire study period. This study was conducted in accordance with the Declaration of Helsinki, good clinical practice, and local regulation. The study was approved by the Institutional Review Board at Korea University Guro Hospital (2018GR0336, date of approval: 11 October 2018) and registered at ClinicalTrials.gov (NCT03728101). Anticoagulant assays of aPTT, PT, dPT, TT, and fibrinogen were measured using STA® Compact Max (Stago, Asnieres, France) according to the manufacturer's instructions. […] To measure aPTT, 50 μL of plasma sample was placed in a cuvette in the presence of STA®-PTT (50 μL) and 50 μL of 0.025 M CaCl2. For fibrinogen, 7.5 μL of plasma which was automatically diluted with Owren-Koller buffer was placed into a cuvette and then 50 μL of […] was added. For pharmacodynamic assessment, Phoenix Winnonlin® version 8.3 (Pharsight, Mountain View, CA, USA) was used to calculate AUEC with the linear trapezoidal method and Rmax was directly determined from individual profiles.

[2] = Adverse events, vital signs, clinical laboratory tests, electrocardiogram; assay type: in vivo, human; conditions: 12 healthy subjects; except one subject with mild pharyngitis, which resolved
Protocol: An open-label, two-period, single sequence clinical study was conducted. After an overnight fast and drinking 200 mL of water one hour before drug administration, eligible subjects were administered with a capsule of dabigatran etexilate 150 mg ([…]®) on the first day of the study. Blood samples for pharmacokinetic and pharmacodynamic analyses were obtained using EDTA tubes and citrate tubes, respectively. […] Subjects remained at fasting stage until 4 h after the administration. […] To ensure compliance, subjects visited the study site for every drug administration. […] Blood samples were obtained at the same time point scheduled as the first day of the study. Adverse events were collected during the entire study period. This study was conducted in accordance with the Declaration of Helsinki, good clinical practice, and local regulation.

[3] = cited from earlier work
[4] = co-administered with simvastatin vs alone
[5] = human, oral, 150 mg dabigatran etexilate alone, plasma, mean (SD)

AUCinf ([1]; human, in vivo, 150 mg): 1576.5 (1154.0) h∙ng/mL
AUClast ([1]; human, in vivo, 150 mg): 1480.1 (1090.5) h∙ng/mL
CL/F ([1]; human, in vivo, 150 mg): 176.8 (161.8) L/h
Cmax ([1]; human, in vivo, 150 mg): 266.8 (187.1) ng/mL
MRT ([1]; human, in vivo, 150 mg): 6.8 (0.9) h
Tmax ([1]; human, in vivo, 150 mg): 2 (1.5–4) h
t1/2 ([1]; human, in vivo, 150 mg): 6.4 (1.9) h
SMILES: Cn1c(CNc2ccc(C(=N)N)cc2)nc2cc(C(=O)N(CCC(=O)OC3O[C@H](C(=O)O)[C@@H](O)[C@H](O)[C@H]3O)c3ccccn3)ccc21 (stereo partly shown) [Dabigatran acylglucuronide]

CL/F ([1]; 150 mg dabigatran etexilate alone, mean (SD)): 12,208.4 (16,447.7) L/h
CL/F ([1]; co-administered with simvastatin 40 mg once daily, day 7, mean (SD)): 5235.1 (2729.4) L/h
AUClast with simvastatin as % of value when administered alone [1, 4]: 147%
Cmax with simvastatin as % of value when administered alone [1, 4]: 138%
increase of AUClast after simvastatin co-administration ([1]; compared to dabigatran administered alone): 47%
AUC(0-inf) [1, 5]: 33.7 ng·h/mL
AUC(0-t) [1, 5]: 26.1 ng·h/mL
half-life ([1]; human, plasma, oral, 150 mg dabigatran etexilate alone, mean (SD)): 3.4 h
Cmax ([1]; human, plasma, oral, 150 mg dabigatran etexilate alone, mean (SD), read-out: Cmax): 24.5 ng/mL
MRT ([1]; human, plasma, oral, 150 mg dabigatran etexilate alone, mean (SD), read-out: MRT): 1.9 h
Tmax ([1]; human, plasma, oral, 150 mg dabigatran etexilate alone, median (min–max), read-out: Tmax): 1 h
SMILES: CCCCCCOC(=O)NC(=N)c1ccc(NCc2nc3cc(C(=O)N(CCC(=O)OCC)c4ccccn4)ccc3n2C)cc1 [Dabigatran etexilate]
time of highest mean value of aPTT, PT, dPT and TT (coagulation): 2 to 4 h
adverse events, vital signs, clinical laboratory tests, electrocardiogram [2]: no adverse events or clinically significant changes
absolute bioavailability [3]: 7%
increase in exposure in mild renal impairment patients vs healthy subjects ([3]; single dose): 1.5 times
